In patent US12539292B2, “BRM targeting compounds and associated methods of use” (Arvinas Operations, Inc., priority 2018, dated 2026):
One block for each compound: values may come before it.

Molecular target: T1, BRM (Homo sapiens, UniProt P51531)
T1 construct: In-Cell Western Screen of BRM Degradation in SW1573 Cells; endogenous in cells; host or cells: SW1573
Assay: In-cell Western screen of BRM degradation in SW1573 cells (Dmax and DC50)
Type: cell-based
Details: BRM degradation, SW1573 cells; for DC50: read-out: DC50; for Dmax: tested at the top concentration of between 0.3 and 10 μM, read-out: Dmax (%) (% degraded)
Method in brief: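 After adhering overnight, cells received compound for 18-20 hours. They were then washed in cold DPBS, fixed with 4% PFA for 20 min and permeabilized for 30 min. Blocking and fluorescent secondary staining followed before imaging.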

T1 sequence (P51531 whole entry): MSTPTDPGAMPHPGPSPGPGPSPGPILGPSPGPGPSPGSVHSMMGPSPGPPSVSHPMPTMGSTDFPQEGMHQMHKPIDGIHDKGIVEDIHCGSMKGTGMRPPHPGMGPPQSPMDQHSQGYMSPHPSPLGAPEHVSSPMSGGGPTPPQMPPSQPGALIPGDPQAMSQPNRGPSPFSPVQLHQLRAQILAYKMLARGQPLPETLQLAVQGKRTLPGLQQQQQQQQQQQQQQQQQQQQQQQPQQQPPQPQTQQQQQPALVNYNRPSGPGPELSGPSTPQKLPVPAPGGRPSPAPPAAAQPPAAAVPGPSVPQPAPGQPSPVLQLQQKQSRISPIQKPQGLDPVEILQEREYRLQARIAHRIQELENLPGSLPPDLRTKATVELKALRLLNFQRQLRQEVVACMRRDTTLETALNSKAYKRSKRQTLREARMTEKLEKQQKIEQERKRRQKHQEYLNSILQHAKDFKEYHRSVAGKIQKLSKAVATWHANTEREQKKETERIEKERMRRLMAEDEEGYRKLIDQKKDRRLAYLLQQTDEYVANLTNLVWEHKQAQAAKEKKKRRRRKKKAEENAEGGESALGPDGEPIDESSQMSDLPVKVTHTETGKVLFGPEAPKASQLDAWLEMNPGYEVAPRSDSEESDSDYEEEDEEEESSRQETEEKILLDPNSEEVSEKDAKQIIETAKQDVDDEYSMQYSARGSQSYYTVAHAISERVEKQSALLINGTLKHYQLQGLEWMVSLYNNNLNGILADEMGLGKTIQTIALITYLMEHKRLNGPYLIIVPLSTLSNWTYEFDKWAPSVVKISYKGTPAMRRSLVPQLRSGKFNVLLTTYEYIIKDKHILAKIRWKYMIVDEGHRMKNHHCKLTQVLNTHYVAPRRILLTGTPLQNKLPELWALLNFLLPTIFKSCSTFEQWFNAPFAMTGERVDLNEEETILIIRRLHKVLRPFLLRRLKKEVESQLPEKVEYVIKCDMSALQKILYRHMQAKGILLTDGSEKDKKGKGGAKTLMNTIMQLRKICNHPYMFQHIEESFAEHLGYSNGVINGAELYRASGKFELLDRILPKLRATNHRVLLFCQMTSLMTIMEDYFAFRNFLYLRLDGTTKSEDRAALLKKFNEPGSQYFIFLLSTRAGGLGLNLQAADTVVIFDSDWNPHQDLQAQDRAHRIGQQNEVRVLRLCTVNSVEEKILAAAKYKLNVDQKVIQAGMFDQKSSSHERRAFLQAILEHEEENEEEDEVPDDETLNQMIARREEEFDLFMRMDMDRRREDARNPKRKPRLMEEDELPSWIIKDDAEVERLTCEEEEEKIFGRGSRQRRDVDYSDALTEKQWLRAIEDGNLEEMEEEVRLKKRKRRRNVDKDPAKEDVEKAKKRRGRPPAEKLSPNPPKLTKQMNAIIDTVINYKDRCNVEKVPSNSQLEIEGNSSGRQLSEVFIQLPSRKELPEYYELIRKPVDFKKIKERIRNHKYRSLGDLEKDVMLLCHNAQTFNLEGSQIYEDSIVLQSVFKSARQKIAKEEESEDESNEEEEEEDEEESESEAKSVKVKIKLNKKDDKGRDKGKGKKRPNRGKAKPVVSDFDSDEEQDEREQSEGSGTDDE

SMILES: Cc1ncsc1-c1ccc([C@H](NC(=O)[C@@H]2C[C@@H](O)CN2C(=O)[C@@H](c2cc(OCCN3CCC(O[C@H]4C[C@H](Oc5cc(N6C7CCC6CN(c6cc(-c8ccccc8O)nnc6N)C7)ccn5)C4)CC3)no2)C(C)C)C(F)F)cn1 [compound 243, (2S,4R)-1-((2R)-2-(3-(2-(4-((1r,3R)-3-((4-(3-(3-amino-6-(2-hydroxyphenyl)pyridazin-4-yl)-3,8-diazabicyclo[3.2.1]octan-8-yl)pyridin-2-yl)oxy)cyclobutoxy)piperidin-1-yl)ethoxy)isoxazol-5-yl)-3-methylbutanoyl)-N-((S)-2,2-difluoro-1-(6-(4-methylthiazol-5-yl)pyridin-3-yl)ethyl)-4-hydroxypyrrolidine-2-carboxamide]
- DC50: < 2.5 nM
- Dmax: > 75%

SMILES: Cc1ncsc1-c1ccc([C@@H](NC(=O)[C@@H]2C[C@@H](O)CN2C(=O)[C@@H](c2cc(OCCN3CCC(O[C@H]4C[C@H](Oc5cc(N6C7CCC6CN(c6cc(-c8ccccc8O)nnc6N)C7)ccn5)C4)CC3)no2)C(C)C)C(F)F)cn1 [compound 244, (2S,4R)-1-((2R)-2-(3-(2-(4-((1r,3R)-3-((4-(3-(3-amino-6-(2-hydroxyphenyl)pyridazin-4-yl)-3,8-diazabicyclo[3.2.1]octan-8-yl)pyridin-2-yl)oxy)cyclobutoxy)piperidin-1-yl)ethoxy)isoxazol-5-yl)-3-methylbutanoyl)-N-((R)-2,2-difluoro-1-(6-(4-methylthiazol-5-yl)pyridin-3-yl)ethyl)-4-hydroxypyrrolidine-2-carboxamide]
- DC50: < 2.5 nM
- Dmax: > 75%

SMILES: Cc1ncsc1-c1ccc([C@@H](NC(=O)[C@@H]2C[C@@H](O)CN2C(=O)[C@H](c2cc(OCCN3CCN(CCOc4cc(N5C6CCC5CN(c5cc(-c7ccccc7O)nnc5N)C6)ccn4)CC3)no2)C(C)C)C(=O)N(C)C2CCC2)cc1 [compound 245, (2S,4R)-1-((2S)-2-(3-(2-(4-(2-((4-(3-(3-amino-6-(2-hydroxyphenyl)pyridazin-4-yl)-3,8-diazabicyclo[3.2.1]octan-8-yl)pyridin-2-yl)oxy)ethyl)piperazin-1-yl)ethoxy)isoxazol-5-yl)-3-methylbutanoyl)-N-((R)-2-(cyclobutyl(methyl)amino)-1-(4-(4-methylthiazol-5-yl)phenyl)-2-oxoethyl)-4-hydroxypyrrolidine-2-carboxamide]
- DC50: 2.5 to 10 nM
- Dmax: > 75%

SMILES: Cc1ncsc1-c1ccc([C@@H](NC(=O)[C@@H]2C[C@@H](O)CN2C(=O)[C@@H](c2cc(OCCN3CCN(CCOc4cc(N5C6CCC5CN(c5cc(-c7ccccc7O)nnc5N)C6)ccn4)CC3)no2)C(C)C)C(=O)N(C)C2CCC2)cc1 [compound 246, (2S,4R)-1-((2R)-2-(3-(2-(4-(2-((4-(3-(3-amino-6-(2-hydroxyphenyl)pyridazin-4-yl)-3,8-diazabicyclo[3.2.1]octan-8-yl)pyridin-2-yl)oxy)ethyl)piperazin-1-yl)ethoxy)isoxazol-5-yl)-3-methylbutanoyl)-N-((R)-2-(cyclobutyl(methyl)amino)-1-(4-(4-methylthiazol-5-yl)phenyl)-2-oxoethyl)-4-hydroxypyrrolidine-2-carboxamide]
- DC50: < 2.5 nM
- Dmax: > 75%

SMILES: CC(C)[C@H](C(=O)N1C[C@H](O)C[C@H]1C(=O)N[C@@H](C)c1ccc(C(F)(F)F)cc1)c1cc(OCCN2CCC(O[C@H]3C[C@H](Oc4cc(N5C6CCC5CN(c5cc(-c7ccccc7O)nnc5N)C6)ccn4)C3)CC2)no1 [compound 247, (2S,4R)-1-((2S)-2-(3-(2-(4-((1r,3S)-3-((4-(3-(3-amino-6-(2-hydroxyphenyl)pyridazin-4-yl)-3,8-diazabicyclo[3.2.1]octan-8-yl)pyridin-2-yl)oxy)cyclobutoxy)piperidin-1-yl)ethoxy)isoxazol-5-yl)-3-methylbutanoyl)-4-hydroxy-N-((S)-1-(4-(trifluoromethyl)phenyl)ethyl) pyrrolidine-2-carboxamide]
- DC50: > 30 nM

SMILES: CC(C)[C@@H](C(=O)N1C[C@H](O)C[C@H]1C(=O)N[C@@H](C)c1ccc(C(F)(F)F)cc1)c1cc(OCCN2CCC(O[C@H]3C[C@H](Oc4cc(N5C6CCC5CN(c5cc(-c7ccccc7O)nnc5N)C6)ccn4)C3)CC2)no1 [compound 248, (2S,4R)-1-((2R)-2-(3-(2-(4-((1r,3R)-3-((4-(3-(3-amino-6-(2-hydroxyphenyl)pyridazin-4-yl)-3,8-diazabicyclo[3.2.1]octan-8-yl)pyridin-2-yl)oxy)cyclobutoxy)piperidin-1-yl)ethoxy)isoxazol-5-yl)-3-methylbutanoyl)-4-hydroxy-N-((S)-1-(4-(trifluoromethyl)phenyl)ethyl) pyrrolidine-2-carboxamide]
- DC50: > 30 nM

SMILES: Cc1ncsc1-c1ccc([C@H](C)NC(=O)[C@@H]2C[C@@H](O)CN2C(=O)[C@H](c2cc(OCCCC#Cc3ccc(O[C@H]4C[C@H](Oc5cc(N6C7CCC6CN(c6cc(-c8ccccc8O)nnc6N)C7)ccn5)C4)cn3)no2)C(C)C)cc1 [compound 249, (2S,4R)-1-((2S)-2-(3-((5-(5-((1r,3r)-3-((4-(3-(3-amino-6-(2-hydroxyphenyl)pyridazin-4-yl)-3,8-diazabicyclo[3.2.1]octan-8-yl)pyridin-2-yl)oxy)cyclobutoxy)pyridin-2-yl)pent-4-yn-1-yl)oxy)isoxazol-5-yl)-3-methylbutanoyl)-4-hydroxy-N-((S)-1-(4-(4-methylthiazol-5-yl)phenyl)ethyl)pyrrolidine-2-carboxamide]
- DC50: > 30 nM
- Dmax: > 75%

SMILES: Cc1ncsc1-c1ccc([C@H](C)NC(=O)[C@@H]2C[C@@H](O)CN2C(=O)[C@@H](c2cc(OCCCC#Cc3ccc(O[C@H]4C[C@H](Oc5cc(N6C7CCC6CN(c6cc(-c8ccccc8O)nnc6N)C7)ccn5)C4)cn3)no2)C(C)C)cc1 [compound 250, (2S,4R)-1-((2R)-2-(3-((5-(5-((1r,3r)-3-((4-(3-(3-amino-6-(2-hydroxyphenyl)pyridazin-4-yl)-3,8-diazabicyclo[3.2.1]octan-8-yl)pyridin-2-yl)oxy)cyclobutoxy)pyridin-2-yl)pent-4-yn-1-yl)oxy)isoxazol-5-yl)-3-methylbutanoyl)-4-hydroxy-N-((S)-1-(4-(4-methylthiazol-5-yl)phenyl)ethyl)pyrrolidine-2-carboxamide]
- DC50: < 2.5 nM
- Dmax: > 75%

SMILES: Cc1ncsc1-c1ccc([C@H](C)NC(=O)[C@@H]2C[C@@H](O)CN2C(=O)[C@H](c2cc(OCCN3CCC(O[C@H]4C[C@H](Oc5cc(N6C7CCC6CN(c6cc(-c8ccccc8O)nnc6N)C7)ccn5)C4)CC3)no2)C(C)C)cc1F [compound 252, (2S,4R)-1-((2S)-2-(3-(2-(4-((1r,3S)-3-((4-(3-(3-amino-6-(2-hydroxyphenyl)pyridazin-4-yl)-3,8-diazabicyclo[3.2.1]octan-8-yl)pyridin-2-yl)oxy)cyclobutoxy)piperidin-1-yl)ethoxy)isoxazol-5-yl)-3-methylbutanoyl)-N-((S)-1-(3-fluoro-4-(4-methylthiazol-5-yl)phenyl)ethyl)-4-hydroxypyrrolidine-2-carboxamide]
- DC50: > 30 nM
- Dmax: > 75%

SMILES: Cc1ncsc1-c1ccc([C@H](C)NC(=O)[C@@H]2C[C@@H](O)CN2C(=O)[C@@H](c2cc(OCCN3CCC(O[C@H]4C[C@H](Oc5cc(N6C7CCC6CN(c6cc(-c8ccccc8O)nnc6N)C7)ccn5)C4)CC3)no2)C(C)C)cc1F [compound 253, (2S,4R)-1-((2R)-2-(3-(2-(4-((1r,3R)-3-((4-(3-(3-amino-6-(2-hydroxyphenyl)pyridazin-4-yl)-3,8-diazabicyclo[3.2.1]octan-8-yl)pyridin-2-yl)oxy)cyclobutoxy)piperidin-1-yl)ethoxy)isoxazol-5-yl)-3-methylbutanoyl)-N-((S)-1-(3-fluoro-4-(4-methylthiazol-5-yl)phenyl)ethyl)-4-hydroxypyrrolidine-2-carboxamide]
- DC50: < 2.5 nM
- Dmax: > 75%

SMILES: Cc1ncsc1-c1ccc([C@H](C)NC(=O)[C@H]2C[C@H](O)CN2C(=O)C(c2cc(OCCN3CCC(O[C@H]4C[C@H](Oc5cc(N6C7CCC6CN(c6cc(-c8ccccc8O)nnc6N)C7)ccn5)C4)CC3)no2)C(C)C)cn1 (stereo partly drawn) [compound 254, (2R,4S)-1-(2-(3-(2-(4-((1r,3r)-3-((4-(3-(3-amino-6-(2-hydroxyphenyl)pyridazin-4-yl)-3,8-diazabicyclo[3.2.1]octan-8-yl)pyridin-2-yl)oxy)cyclobutoxy)piperidin-1-yl)ethoxy)isoxazol-5-yl)-3-methylbutanoyl)-4-hydroxy-N-((S)-1-(6-(4-methylthiazol-5-yl)pyridin-3-yl)ethyl)pyrrolidine-2-carboxamide]
- DC50: > 30 nM

- DC50: > 30 nM
SMILES: Cc1ncsc1-c1ccc([C@@H](CN)NC(=O)[C@@H]2C[C@@H](O)CN2C(=O)[C@H](c2cc(OCCN3CCN(CCOc4cc(N5C6CCC5CN(c5cc(-c7ccccc7O)nnc5N)C6)ccn4)CC3)no2)C(C)C)cc1 [compound 255, (2S,4R)-N-((S)-2-amino-1-(4-(4-methylthiazol-5-yl)phenyl)ethyl)-1-((2S)-2-(3-(2-(4-(2-((4-(3-(3-amino-6-(2-hydroxyphenyl)pyridazin-4-yl)-3,8-diazabicyclo[3.2.1]octan-8-yl)pyridin-2-yl)oxy)ethyl)piperazin-1-yl)ethoxy)isoxazol-5-yl)-3-methylbutanoyl)-4-hydroxypyrrolidine-2-carboxamide]

- DC50: > 30 nM
SMILES: Cc1ncsc1-c1ccc([C@@H](CN)NC(=O)[C@@H]2C[C@@H](O)CN2C(=O)[C@@H](c2cc(OCCN3CCN(CCOc4cc(N5C6CCC5CN(c5cc(-c7ccccc7O)nnc5N)C6)ccn4)CC3)no2)C(C)C)cc1 [compound 256, (2S,4R)-N-((S)-2-amino-1-(4-(4-methylthiazol-5-yl)phenyl)ethyl)-1-((2R)-2-(3-(2-(4-(2-((4-(3-(3-amino-6-(2-hydroxyphenyl)pyridazin-4-yl)-3,8-diazabicyclo[3.2.1]octan-8-yl)pyridin-2-yl)oxy)ethyl)piperazin-1-yl)ethoxy)isoxazol-5-yl)-3-methylbutanoyl)-4-hydroxypyrrolidine-2-carboxamide]
